Assay results: paper PMC6153434, “Bystander Effects of Hypoxia-Activated Prodrugs: Agent-Based Modeling Using Three Dimensional Cell Cultures” (Frontiers in Pharmacology, 2018)

Key:
[1] = pH 7.4
[2] = ref Hicks et al., 2010; Wang et al., 2014; Gu et al., 2017; cited from earlier work
[3] = test system: POR-null 'target' HCT116 cells in spheroids; assay type: cell-based
[4] = test system: POR-R activators and PORko-G targets (HCT116); assay: SN30000 'no bystander effect' agent-based model parameters; conditions: ABM parameter
[5] = test system: HCT116 cells; conditions: cited from earlier work
[6] = test system: anoxic MCLs of POR-R activators and PORko-G targets; conditions: 100 μM in donor; differing proportions of POR-R activators
[7] = test system: high-POR 'activator' HCT116 cell lines (POR-R, POR-G); assay type: cell-based
[8] = test system: SiHa cells
[9] = Stability in culture medium at 37°C by LC-MS/MS
[10] = test system: POR-R cells; assay: LC-MS/MS assay for PR104A metabolites in anoxic cultures; assay type: in vitro ADME; conditions: 100 μM PR104A, 3 h, anoxia
Protocol: POR-R cells (10^6 cells/0.5 mL) in 24-well plates were exposed to 100 μM PR104A under anoxia for 3 h. Plates were centrifuged (216 × g, 4°C, 8 min) extracellular medium was removed and proteins precipitated with an equal volume of ice-cold methanol. Cold methanol (100 μL) was then added to each well to extract intracellular PR104A and metabolites. Samples were stored at -80°C, then thawed, centrifuged (13,000 × g, 5 min, 4°C), diluted with two volumes of ammonium formate buffer (4.5 mM, pH 4.5) and analyzed with an Agilent LC-MS/MS (model 6460) using an electrospray ionization/atmospheric pressure chemical ionization multimode source and photodiode array absorbance detector as described previously ([Patel et al., 2007]).

[11] = test system: HCT116 and HCT116/POR#6; conditions: published value; PR104H+M model; ref Foehrenbacher et al., 2013; cited from earlier work
[12] = published value, ref Hicks et al., 2010
[13] = published value, ref Mao et al., 2018

SMILES | Measured logD7.4 [1] | also measured
O=C(NCCO)c1cc(N(CCBr)CCBr)c([N+](=O)[O-])cc1[N+](=O)[O-] [I Br Br CH2CH2OH] | 1.69 | 
O=C(NCC(O)CO)c1cc(N(CCCl)CCCl)c([N+](=O)[O-])cc1[N+](=O)[O-] (stereo not shown) [I Cl Cl CH2CHOHCH2OH] | 0.93 | 
[O-][n+]1nc(CCCN2CCOCC2)nc2cc3c(cc21)CCC3 [1-oxide] |  | cytotoxicity of downstream metabolites of SN30000 [2]: non-cytotoxic
CS(=O)(=O)OCCN(CCBr)c1cc(C(N)=O)c([N+](=O)[O-])cc1[N+](=O)[O-] [I Br OSO2CH3 H] | 0.493 | 
[O-][n+]1nc(CCCN2CCOCC2)[n+]([O-])c2cc3c(cc21)CCC3 [SN30000] |  | bystander effect [3]: trivially small; killing of target cells as proportion of activators increases [3]: increasing proportions of POR-R activators reduced killing of PORko-G targets; Half-life, non-enzymatic loss in culture medium ([4]; 37 °C): 1000 days; F2, proportion of O2-dependent metabolism of the drug [4]: 1; Hill parameter n [4]: 1.7; KO2, O2 concentration for half-maximum prodrug activation [4]: 1.14; Kc, intrinsic cytotoxic potency of the prodrug [4]: 1800 M⁻¹ s⁻¹; Kin, rate constant for transfer from the extracellular to the intracellular compartment [4]: 10 min⁻¹; Kout, rate constant for transfer from the intracellular to the extracellular compartment [4]: 10 min⁻¹; Activator Kmet,0, rate constant for the maximum rate of metabolism in activator cells under anoxia ([4]; POR-R activators, adjusted to optimize monolayer fits): 14 min⁻¹; Target Kmet,0, rate constant for the maximum rate of metabolism in target cells under anoxia ([4]; PORko-G targets, adjusted to optimize monolayer fits): 1.3 min⁻¹; Half-life, non-enzymatic loss in culture medium ([5]; 37 °C, published value, ref Mao et al., 2018): 1000 days; Hill parameter n ([5]; oxygen dependence of metabolism, published value, ref Mao et al., 2018): 1.7; Kmet,0, rate constant for the maximum rate of metabolism under anoxia ([5]; parental HCT116 cells (listed as Target Kmet,0 published value), ref Mao et al., 2018): 1.88 min⁻¹; F2, proportion of O2-dependent metabolism of the drug [5, 12]: 1; KO2, O2 concentration for half-maximum prodrug activation [5, 12]: 1.14; Kin, rate constant for transfer from the extracellular to the intracellular compartment [5, 13]: 10 min⁻¹; Kout, rate constant for transfer from the intracellular to the extracellular compartment [5, 13]: 10 min⁻¹; net diffusion through anoxic MCLs [6]: lowered by increasing proportions of activator cells; sensitivity of activator cell lines (clonogenic survival) [7]: marked increases in the sensitivity
CS(=O)(=O)OCCN(CCOS(C)(=O)=O)c1cc(C(N)=O)c([N+](=O)[O-])cc1[N+](=O)[O-] [I OSO2CH3 OSO2CH3 H] | -0.701 | 
O=C(NO)c1cc(N(CCCl)CCCl)c([N+](=O)[O-])cc1[N+](=O)[O-] [I Cl Cl OH] | 1.22 | 
NC(=O)c1c([N+](=O)[O-])ccc(N(CCCl)CCCl)c1[N+](=O)[O-] [VI Cl Cl H] | 1.41 | 
O=C(NCCCO)c1cc([N+](=O)[O-])cc([N+](=O)[O-])c1N(CCCl)CCCl [IV Cl Cl (CH2)3OH] | 2 | 
NC(=O)c1cc([N+](=O)[O-])cc([N+](=O)[O-])c1N(CCBr)CCBr [IV Br Br H] | 2.63 | 
NC(=O)c1cc(N(CCI)CCI)c([N+](=O)[O-])cc1[N+](=O)[O-] [I Iodo Iodo H] | 2.408 | 
CS(=O)(=O)OCCN(CCBr)c1c(C(=O)NCC(O)CO)cc([N+](=O)[O-])cc1[N+](=O)[O-] (stereo not shown) [IV Br OSO2CH3 CH2CHOHCH2OH] | 0.589 | 
NC(=O)c1cc(N(CCO)CCO)c([N+](=O)[O-])cc1N [III OH OH H] | -0.445 | 
CS(=O)(=O)OCCN(CCBr)c1c(C(N)=O)cc([N+](=O)[O-])cc1[N+](=O)[O-] [IV Br OSO2CH3 H] | 1.23 | 
O=C(NCC(O)CO)c1cc([N+](=O)[O-])cc([N+](=O)[O-])c1N(CCBr)CCBr (stereo not shown) [IV Br Br CH2CHOHCH2OH] | 1.83 | 
CS(=O)(=O)OCCN(CCI)c1cc(C(N)=O)c([N+](=O)[O-])cc1[N+](=O)[O-] [I Iodo OSO2CH3 H] | 0.743 | 
O=C(NCCO)c1cc(NO)cc([N+](=O)[O-])c1N(CCCl)CCCl [Metabolite A, 2-(Bis(2-chloroethyl)amino)-5-(hydroxyamino)-N-(2-hydroxyethyl)-3-nitrobenzamide] |  | cytotoxic potency relative to PR104H [8]: lower cytotoxic potency; half-life in culture medium relative to PR104H [9]: fourfold longer half-life
Nc1cc(C(=O)NCCO)c(N(CCCl)CCCl)c([N+](=O)[O-])c1 [Metabolite B] |  | extracellular concentration relative to PR104H ([10]; P = 0.02): fivefold higher
CS(=O)(=O)OCCN(CCBr)c1c(C(=O)NCCO)cc([N+](=O)[O-])cc1[N+](=O)[O-] [IV Br OSO2CH3 CH2CH2OH] | 1.01 | 
NC(=O)c1cc(NO)cc([N+](=O)[O-])c1N(CCCl)CCCl [V Cl Cl H] | 2.19 | 
CS(=O)(=O)OCCN(CCBr)c1c(C(=O)NCCO)cc(NO)cc1[N+](=O)[O-] [PR104H] |  | Kc, intrinsic cytotoxic potency [11]: 92 M⁻¹ s⁻¹; intracellular metabolite profile [10]: major intracellular metabolite
O=C(NCCO)c1cc(N(CCCl)CCCl)c([N+](=O)[O-])cc1[N+](=O)[O-] [I Cl Cl CH2CH2OH] | 1.315 | 

SMILES | Measured logD7.4 [1] | also measured
CS(=O)(=O)OCCN(CCBr)c1cc(C(=O)NCCO)c([N+](=O)[O-])cc1[N+](=O)[O-] [I Br OSO2CH3 CH2CH2OH] | 0.461 | 
O=C(NCC(O)CO)c1cc(N(CCI)CCI)c([N+](=O)[O-])cc1[N+](=O)[O-] (stereo not shown) [I Iodo Iodo CH2CHOHCH2OH] | 1.79 | 
O=C(NCCO)c1cc([N+](=O)[O-])cc([N+](=O)[O-])c1N(CCBr)CCBr [IV Br Br CH2CH2OH] | 2.33 | 
O=C(NCCCO)c1cc(N(CCCl)CCCl)c([N+](=O)[O-])cc1[N+](=O)[O-] [I Cl Cl (CH2)3OH] | 1.49 | 
CS(=O)(=O)OCCN(CCCl)c1c(C(N)=O)cc([N+](=O)[O-])cc1[N+](=O)[O-] [IV Cl OSO2CH3 H] | 1.02 | 
CS(=O)(=O)OCCN(CCCl)c1cc(C(N)=O)c([N+](=O)[O-])cc1[N+](=O)[O-] [I Cl OSO2CH3 H] | 0.425 | 
O=C(NCC(O)CO)c1c([N+](=O)[O-])ccc(N(CCBr)CCBr)c1[N+](=O)[O-] (stereo not shown) [VI Br Br CH2CHOHCH2OH] | 1.04 | 
O=C(NCCO)c1cc([N+](=O)[O-])cc([N+](=O)[O-])c1N(CCCl)CCCl [IV Cl Cl CH2CH2OH] | 1.92 | 
CS(=O)(=O)OCCN(CCBr)c1cc(C(=O)NCC(O)CO)c([N+](=O)[O-])cc1[N+](=O)[O-] (stereo not shown) [I Br OSO2CH3 CH2CHOHCH2OH] | -0.0453 | 
c1c2c(cc3nc(CCCN4CCOCC4)nnc13)CCC2 [nor-oxide] |  | cytotoxicity of downstream metabolites of SN30000 [2]: non-cytotoxic
O=C(NCCN1CCOCC1)c1cc(N(CCCl)CCCl)c([N+](=O)[O-])cc1[N+](=O)[O-] [I Cl Cl CH2CH2-Nmorp] | 1.6 | 
O=C(NCCCO)c1cc(N(CCBr)CCBr)c([N+](=O)[O-])cc1[N+](=O)[O-] [I Br Br (CH2)3OH] | 1.81 | 
O=C(NCC(O)CO)c1cc(N(CCBr)CCBr)c([N+](=O)[O-])cc1[N+](=O)[O-] (stereo not shown) [I Br Br CH2CHOHCH2OH] | 1.25 | 
NC(=O)c1cc(N(CCBr)CCBr)c([N+](=O)[O-])cc1[N+](=O)[O-] [I Br Br H] | 1.97 | 
NC(=O)c1cc([N+](=O)[O-])cc([N+](=O)[O-])c1N(CCI)CCI [IV Iodo Iodo H] | 3.08 | 
CS(=O)(=O)c1cc([N+](=O)[O-])c(C(N)=O)cc1N(CCBr)CCBr [II Br Br H] | 1.18 | 
NC(=O)c1cc(NO)cc([N+](=O)[O-])c1N(CCO)CCO [V OH OH H] | -1.36 | 
NC(=O)c1cc(N(CCOS(N)(=O)=O)CCOS(N)(=O)=O)c([N+](=O)[O-])cc1[N+](=O)[O-] [I OSO2NH2 OSO2NH2 H] | -0.95 | 
NC(=O)c1cc(N(CCCl)CCCl)c([N+](=O)[O-])cc1[N+](=O)[O-] [I Cl Cl H] | 1.515 | 
CS(=O)(=O)OCCN(CCBr)c1ccc([N+](=O)[O-])c(C(=O)NCC(O)CO)c1[N+](=O)[O-] (stereo not shown) [VI Br OSO2CH3 CH2CHOHCH2OH] | -0.373 | 
NC(=O)c1cc(N(CCCl)CCBr)c([N+](=O)[O-])cc1[N+](=O)[O-] [I Cl Br H] | 1.61 | 
